The text below walks through data of ChEMBL document CHEMBL1128274, “6-Aminoquinolones: a new class of quinolone antibacterials?” (1995).

≈ marks a conversion by molar mass, not a printed value.

Common to all, as to format: functional
In experiment [1] the test system is Acinetobacter calcoaceticus. Description: Tested in vitro for inhibitory activity against gram negative bacteria Acinetobacter calcoaceticus OSMPV 113 strain.
The subject of experiment [2] is Enterobacter cloacae. Description: Tested in vitro for inhibitory activity against gram negative bacteria Enterobacter cloacae OMNFI 174 strain.
Experiment [3] concerns Escherichia coli. In words: Tested in vitro for inhibitory activity against gram negative bacteria Escherichia coli ATCC 8739 cell lines at 25 ug/mL.
In experiment [4] the test system is Escherichia coli. In words: Tested in vitro for inhibitory activity against gram negative bacteria Escherichia coli ISF 432 cell lines at 25 ug/mL.
The subject of experiment [5] is Shigella. In words: Tested in vitro for inhibitory activity against gram negative bacteria Shigella enteritidis.
The subject of experiment [6] is Staphylococcus epidermidis. In words: Tested in vitro for inhibitory activity against gram positive bacteria Staphylococcus epidermidis HCF berset C strain.
For experiment [7], the system named is Staphylococcus aureus. In words: Tested in vitro for inhibitory activity against gram positive bacteria Staphylococcus aureus ATCC 6538 strain.
For experiment [8], the system named is Staphylococcus aureus. Description: Tested in vitro for inhibitory activity against gram positive bacteria Staphylococcus aureus MPR 5 strain.
Experiment [9] relates to Enterococcus faecalis. Description: Tested in vitro for inhibitory activity against gram positive bacteria Streptococcus faecalis LEP Br strain.
Experiment [10] concerns Staphylococcus epidermidis. In words: Tested in vitro for inhibitory activity against gram positive bacteria Staphylococcus epidermidis CPHL A2 strain.
Experiment [11] concerns Klebsiella pneumoniae. Description: Tested in vitro for inhibitory activity against gram negative bacteria Klebsiella pneumoniae ATCC 10031 strain.
The test system of experiment [12] is Providencia stuartii. Description: Tested in vitro for inhibitory activity against gram negative bacteria Providencia stuartii CNUR 5 strain.
In experiment [13] the test system is Pseudomonas aeruginosa. Description: Tested in vitro for inhibitory activity against gram negative bacteria Pseudomonas aeruginosa ATCC 9027 strain.
Experiment [14] relates to Escherichia coli. Description: Tested in vitro for inhibitory activity against gram negative bacteria Escherichia coli ATCC 8739 strain.
Experiment [15] relates to Escherichia coli. In words: Tested in vitro for inhibitory activity against gram negative bacteria Escherichia coli ISF 432 strain.
Experiment [16] concerns Escherichia coli. In words: Tested in vitro for inhibitory activity against gram negative bacteria Escherichia coli ATCC 8739 cell lines.
Experiment [17] has as its system Escherichia coli. In words: Tested in vitro for inhibitory activity against gram negative bacteria Escherichia coli ATCC 8739 cell lines at 5.8 ug/mL.
Experiment [18] deals with Escherichia coli. Description: Tested in vitro for inhibitory activity against gram negative bacteria Escherichia coli ISF 432 cell lines at 5.8 ug/mL.
Experiment [19] in a line: Minimum concentration at which cleaved linear DNA is observed.

`CN1CCN(c2cc3c(cc2N)c(=O)c(C(=O)O)cn3C(C)(C)C)CC1`: the MIC is 4 µg/mL (≈ 11.2 µM) in [1]; 1 µg/mL (≈ 2.79 µM) in [2]; 0.06 µg/mL (≈ 0.167 µM) in experiment [3]; 0.06 µg/mL (≈ 0.167 µM) in [4]; 1 µg/mL (≈ 2.79 µM) in experiment [5]; 4 µg/mL (≈ 11.2 µM) in [6]. Besides, the MIC turned out to be 2 µg/mL (≈ 5.58 µM) in experiment [7]; 2 µg/mL (≈ 5.58 µM) in [8]; 32 µg/mL (≈ 89.3 µM) in experiment [9]; 2 µg/mL (≈ 5.58 µM) in experiment [10]; 0.06 µg/mL (≈ 0.167 µM) in [11]; 4 µg/mL (≈ 11.2 µM) in experiment [12]. In [13], this molecule had an MIC of 4 µg/mL (≈ 11.2 µM).

`CC(C)(C)n1cc(C(=O)O)c(=O)c2cc(N)c(N3CCc4ccccc4C3)cc21`: the MIC in experiment [1] was 2 µg/mL (≈ 5.11 µM); in [2], 8 µg/mL (≈ 20.4 µM); in experiment [14] it was 0.12 µg/mL (≈ 0.307 µM); in experiment [15] it was 0.12 µg/mL (≈ 0.307 µM); in [5], 8 µg/mL (≈ 20.4 µM); in [6], 1 µg/mL (≈ 2.55 µM). For the same molecule, the MIC was determined as 0.25 µg/mL (≈ 0.639 µM) in experiment [7]; 0.5 µg/mL (≈ 1.28 µM) in [8]; 8 µg/mL (≈ 20.4 µM) in experiment [9]; 0.5 µg/mL (≈ 1.28 µM) in experiment [10]; 0.12 µg/mL (≈ 0.307 µM) in experiment [11]; 4 µg/mL (≈ 10.2 µM) in [12]. The MIC in [13] is 32 µg/mL (≈ 81.7 µM).

As to `CN1CCN(c2cc3c(c(N)c2N)c(=O)c(C(=O)O)cn3C2CC2)CC1`, the MIC in experiment [1] is 128 µg/mL (≈ 358 µM); in experiment [2], 128 µg/mL (≈ 358 µM); in experiment [16] it was 16 µg/mL (≈ 44.8 µM); in [15] it was 16 µg/mL (≈ 44.8 µM); in experiment [5], 128 µg/mL (≈ 358 µM); in experiment [6] it was 128 µg/mL (≈ 358 µM). Besides, the MIC stood at 128 µg/mL (≈ 358 µM) in experiment [7]; 128 µg/mL (≈ 358 µM) in [8]; 128 µg/mL (≈ 358 µM) in [9]; 128 µg/mL (≈ 358 µM) in experiment [10]; 32 µg/mL (≈ 89.5 µM) in [11]; 128 µg/mL (≈ 358 µM) in [12]. For the same molecule, in [13], the MIC came to 128 µg/mL (≈ 358 µM).

Regarding `CC(C)(C)n1cc(C(=O)O)c(=O)c2cc(N)c(N3CCSCC3)cc21`, the MIC is 0.5 µg/mL (≈ 1.38 µM) in experiment [1]; 2 µg/mL (≈ 5.53 µM) in [2]; 0.06 µg/mL (≈ 0.166 µM) in [17]; 0.03 µg/mL (≈ 0.083 µM) in experiment [18]; 2 µg/mL (≈ 5.53 µM) in experiment [5]; 0.5 µg/mL (≈ 1.38 µM) in [6]. Further, the MIC was found to be 0.25 µg/mL (≈ 0.692 µM) in experiment [7]; 0.25 µg/mL (≈ 0.692 µM) in experiment [8]; 8 µg/mL (≈ 22.1 µM) in [9]; 0.5 µg/mL (≈ 1.38 µM) in experiment [10]; 0.03 µg/mL (≈ 0.083 µM) in experiment [11]; 4 µg/mL (≈ 11.1 µM) in experiment [12]. Further, the MIC in experiment [13] stood at 4 µg/mL (≈ 11.1 µM). In experiment [19], this molecule had a Concentration of 5.8 µg/mL.

Turning to `NCCN1CCN(c2cc3c(cc2N)c(=O)c(C(=O)O)cn3C2CC2)CC1`, the MIC in experiment [1] is 32 µg/mL (≈ 86.2 µM); in [2] it was 2 µg/mL (≈ 5.38 µM); in experiment [14] it was 0.5 µg/mL (≈ 1.35 µM); in experiment [15], 0.5 µg/mL (≈ 1.35 µM); in experiment [5] it was 2 µg/mL (≈ 5.38 µM); in experiment [6] it was 32 µg/mL (≈ 86.2 µM). The MIC in experiment [7] came to 128 µg/mL (≈ 345 µM); in experiment [8] it was 128 µg/mL (≈ 345 µM); in experiment [9] it was 128 µg/mL (≈ 345 µM); in experiment [10], 64 µg/mL (≈ 172 µM); in experiment [11], 0.5 µg/mL (≈ 1.35 µM); in experiment [12], 128 µg/mL (≈ 345 µM). Besides, in experiment [13], the MIC came to 32 µg/mL (≈ 86.2 µM).

Take `CN1CCN(c2c(N)cc3c(=O)c(C(=O)O)cn(C4CC4)c3c2F)CC1`: the MIC was 8 µg/mL (≈ 22.2 µM) in experiment [1]; 0.25 µg/mL (≈ 0.694 µM) in experiment [2]; 1 µg/mL (≈ 2.77 µM) in experiment [3]; 0.05 µg/mL (≈ 0.139 µM) in experiment [4]; 0.25 µg/mL (≈ 0.694 µM) in experiment [5]; 8 µg/mL (≈ 22.2 µM) in experiment [6]. Besides, the MIC in experiment [7] was found to be 4 µg/mL (≈ 11.1 µM); in experiment [8], 4 µg/mL (≈ 11.1 µM); in experiment [9], 64 µg/mL (≈ 178 µM); in experiment [10], 4 µg/mL (≈ 11.1 µM); in experiment [11], 0.05 µg/mL (≈ 0.139 µM); in experiment [12], 4 µg/mL (≈ 11.1 µM). In experiment [13], this molecule showed an MIC of 2 µg/mL (≈ 5.55 µM).

For the molecule `CC(C)(C)n1cc(C(=O)O)c(=O)c2cc(N)c(N3CCc4ccccc43)cc21`, the MIC in experiment [1] was 8 µg/mL (≈ 21.2 µM); in experiment [2], 8 µg/mL (≈ 21.2 µM); in [14], 0.12 µg/mL (≈ 0.318 µM); in [15] it was 0.12 µg/mL (≈ 0.318 µM); in [5] it was 8 µg/mL (≈ 21.2 µM); in [6], 4 µg/mL (≈ 10.6 µM). The MIC in experiment [7] was 2 µg/mL (≈ 5.3 µM); in [8] it was 2 µg/mL (≈ 5.3 µM); in experiment [9] it was 64 µg/mL (≈ 170 µM); in experiment [10] it was 4 µg/mL (≈ 10.6 µM); in experiment [11] it was 0.12 µg/mL (≈ 0.318 µM); in [12] it was 4 µg/mL (≈ 10.6 µM). In experiment [13], this molecule came in with an MIC of 32 µg/mL (≈ 84.8 µM).

As for `CN1CCN(c2c(F)c(N)c3c(=O)c(C(=O)O)cn(C4CC4)c3c2F)CC1`, the MIC in experiment [1] is 0.05 µg/mL (≈ 0.132 µM); in [2], 0.03 µg/mL (≈ 0.0793 µM); in experiment [14] it was 0.004 µg/mL (≈ 0.0106 µM); in experiment [15], 0.002 µg/mL (≈ 0.00529 µM); in experiment [5], 0.03 µg/mL (≈ 0.0793 µM); in experiment [6] it was 0.25 µg/mL (≈ 0.661 µM). Also, the MIC in experiment [7] came out at 0.06 µg/mL (≈ 0.159 µM); in experiment [8], 0.06 µg/mL (≈ 0.159 µM); in [9], 0.5 µg/mL (≈ 1.32 µM); in experiment [10], 0.12 µg/mL (≈ 0.317 µM); in experiment [11], 0.002 µg/mL (≈ 0.00529 µM); in experiment [12] it was 0.06 µg/mL (≈ 0.159 µM). In experiment [13], this molecule displayed an MIC of 0.25 µg/mL (≈ 0.661 µM).
